Earlier results, collected in patent US10021900B2, “Carbohydrate composition and food and beverage producing gradual rise in blood glucose levels” (MATSUTANI CHEMICAL INDUSTRY CO., LTD., priority 2011, dated 2018).

Conditions: 10% by mass aqueous solution

osmotic pressure: about 340 mOSMOL/kg
SMILES: OC[C@H]1O[C@H](OC[C@H]2OC(O)(CO)[C@@H](O)[C@@H]2O)[C@H](O)[C@@H](O)[C@@H]1O (stereo partly shown) [isomaltulose]
